For assay [1], the system named is FADD−/− Jurkat cells. The assay is described as follows: Inhibition of TNF-induced programmed necrosis of FADD deficient Jurkat cells (Cell Titer-Glo viability). To be noted: for EC50: Homo sapiens, Jurkat, FADD−/− Jurkat cells; for activity of inhibition of programmed necrosis compared with GSK2982772: human FADD-deficient Jurkat cells, TNFα alone or in combination with SM164. Type of assay: cell-based. From the text:
(§1) The adopted biological assay protocol was: the effect of compounds on programmed necroptosis of TNF-induced FADD (Fas-Associated Death Domain) deficient Jurkat cells and L929 cells.
(§2) In order to verify the inhibitory effect of the compounds of the present invention on programmed cell necrosis at the cellular level, cell types that is closely related to the RIP1 pathway, namely FADD deficient Jurkat cells (human peripheral blood leukemia T cell strain) and L929 cells, were selected. Two different stimulation methods were used: tumor necrosis factor (TNFα) was used alone, or TNFα was used in combination with mitochondria-derived cysteine aspartate activator (SMAC) SM164. Cells viability was calculated by detecting chemiluminescence values, thereby obtaining the biological activity of the compound on the inhibition of programmed cell necrosis.
(§3) Methods: FADD deficient Jurkat cells: FADD deficient Jurkat cells (human peripheral blood leukemia T cell line) were cultured in vitro. After growing to the logarithmic growth phase, the cells were collected, centrifuged at 1000 rpm for 5 min, the supernatant was discarded, and the cell concentration was adjusted to 2.5×10^5/mL. Cells were seeded into 384-well plates, 40 μl per well. 5 μL of SM164 (50 nM) diluted in cell culture medium and 5 μL of each compound were added to the corresponding wells. After pretreatment at 37° C. for 1 h, 5 μL of TNFα (50 ng/mL) diluted in cell culture medium was added to each well of the stimulation group, and 5 μL of the culture medium was added to the control group. The plate was cultured in a cell incubator (37° C., 5% CO2) for 14 h, and […] of Cell Titer-Glo solution was added to each well, then incubated for 30 min at room temperature, and intracellular ATP level was measured by detecting luminescence. The unstimulated DMSO control wells were taken as 100% cell viability. L929 cells: The L929 cells (mouse fibroblasts) were cultured in vitro, digested and diluted to 6.25×10^4/ml, and the cells were seeded into 384-well plates, 40 μl per well. The plate was placed in a cell incubator (37° C., 5% CO2) for 12 hours. 5 μL of SM164 (500 nM) diluted in cell culture medium and 5 μL of each compound were added to the corresponding wells. After pretreatment at 37° C. for 1 h, 5 μL of TNFα (500 ng/mL) diluted in cell culture medium was added to each well of the stimulation group, and 5 μL of the culture medium was added to the control group. After the plate was cultured for 14 h in a cell incubator (37° C., 5% CO2), 15 μl of Cell Titer-Glo solution was added to each well. The plate was incubated at room temperature for 30 min, and intracellular ATP level was measured by detecting luminescence. The unstimulated DMSO control wells were taken as 100% cell viability. EC50 values of the compounds were calculated using Prism Graphpad statistical software.

In assay [2] the test system is L929 cells. Put plainly: Inhibition of TNF-induced programmed necrosis of L929 cells (Cell Titer-Glo viability). Type of assay: cell-based, mouse. The conditions noted are these: Mus musculus, L929, L929 cells.
From the text: as §1, §2, §3
(In general: In ATP-based viability assays light output follows the ATP content of the culture.)

Where [3] appears, read: 14 h, stimulated with TNFα + SM164, read-out: EC50 (μM) FADD−/− Jurkat cells (human) TNFα + SM164.
[4] abbreviates: stimulated with TNFα alone, read-out: EC50 (μM) FADD−/− Jurkat cells (human) TNFα.
The mark [5] stands for this setting: stimulated with TNFα + SM164, read-out: EC50 (μM) L929 cells (mouse) TNFα + SM164.
[6] abbreviates: stimulated with TNFα alone, read-out: EC50 (μM) L929 cells (mouse) TNFα.

Like-named read-outs stand apart in the source and are kept apart here.

In the case of `Nc1ncnc2c1ccn2-c1ccc(CNC(=O)Cc2cccc(OC(F)(F)F)c2)cc1` [QY-9-69, O—N-(4-(4-amino-7H-pyrrolo[2,3-d]pyrimidine-7-yl)benzyl)-2-(3-(trifluoromethoxy)phenyl)acetamide], the EC50 in assay [1] (setting [3]) was > 10000 nM; in assay [1] (setting [4]), > 10000 nM; in assay [2] (setting [5]), > 10000 nM; in assay [2] (setting [6]), 567 nM.
As for `CNC(=O)c1ccc2c(c1)ncn2-c1ccc(CC(=O)N(C)Cc2cc(F)cc(F)c2F)cc1` [QY-5-40, N-methyl-1-(4-(2-(methyl(2,3,5-trifluorobenzyl)amino)-2-oxoethyl)phenyl)-1H-benzo[d]imidazol-5-formamide], the EC50 in assay [1] (setting [3]) was > 10000 nM; in assay [1] (setting [4]) it was 2500 nM; in assay [2] (setting [5]) it was > 10000 nM; in assay [2] (setting [6]), 5000 nM.
With `CNC(=O)c1ccc2c(c1)ncn2-c1ccc(CC(=O)NCc2c[nH]c3ccccc23)cc1` [QY-5-35, 1-(4-(2-(((1H-indole-3-yl)methyl)amino)-2-oxoethyl)phenyl)-N-methyl-1H-benzo[d]imidazol-5-formamide], the EC50 in assay [1] (setting [3]) was > 10000 nM; in assay [1] (setting [4]), 2490 nM; in assay [2] (setting [5]) it was > 10000 nM; in assay [2] (setting [6]) it was > 10000 nM.
For the molecule `C[C@H](NC(=O)c1cnn(C)c1Cc1ccccc1)c1ccc(-n2cnc3c(N)ncnc32)cc1` [QY-13-31], the EC50 in assay [1] (setting [3]) amounted to 0.305 nM; in assay [1] (setting [4]), 0.084 nM; in assay [2] (setting [5]) it was 0.553 nM; in assay [2] (setting [6]), 0.437 nM. In addition, the “activity of inhibition of programmed necrosis compared with GSK2982772” value in assay [1] is on record as “stronger activity”.
As to `CCn1ncc(C(=O)NCc2ccc(-n3cnc4c(N)ncnc43)cc2)c1Cc1ccccc1` [QY-10-65], the EC50 in assay [1] (setting [3]) was 34.6 nM; in assay [1] (setting [4]), 1.2 nM; in assay [2] (setting [5]) it was 73.8 nM; in assay [2] (setting [6]), 22.1 nM.
Turning to `C[C@@H](c1ccc(-n2cnc3c(N)ncnc32)cc1)N1CCc2nn(C)c(Cc3ccccc3)c2C1=O` [QY-13-33], the EC50 in assay [1] (setting [3]) was found to be 2.85 nM; in assay [1] (setting [4]) it was 0.296 nM; in assay [2] (setting [5]) it was 3.02 nM; in assay [2] (setting [6]), 1.32 nM. In addition, the “activity of inhibition of programmed necrosis compared with GSK2982772” value in assay [1] is recorded as “stronger activity”.
As to `CNC(=O)c1ccc2c(ccn2-c2ccc(CNC(=O)c3cc(Cc4ccccc4)n(C)n3)cc2)c1` [ZSQ-15-68], the EC50 in assay [1] (setting [3]) was 670 nM; in assay [1] (setting [4]) it was 115 nM; in assay [2] (setting [5]), 1800 nM; in assay [2] (setting [6]), 610 nM.
Turning to `C[C@@H](NC(=O)c1cnn(C)c1Cc1ccccc1)c1ccc(-n2cnc3c(N)ncnc32)cc1` [QY-12-97], the EC50 in assay [1] (setting [3]) came out at 132 nM; in assay [1] (setting [4]), 36.1 nM; in assay [2] (setting [5]) it was 219 nM; in assay [2] (setting [6]) it was 51.9 nM.
As to `Cn1nc(Cl)c(C(=O)NCc2ccc(-n3cnc4c(N)ncnc43)cc2)c1Cc1ccccc1` [QY-12-100], the EC50 in assay [1] (setting [3]) came to 0.734 nM; in assay [1] (setting [4]), 0.172 nM; in assay [2] (setting [5]), 4.63 nM; in assay [2] (setting [6]), 0.458 nM. In assay [1], the “activity of inhibition of programmed necrosis compared with GSK2982772” value is on record as “stronger activity”.
For `Cn1nc(C(=O)NCc2ccc(-n3ncc4c(N)ncnc43)cc2)cc1Cc1ccccc1` [ZSQ-15-48], the EC50 is 451 nM in assay [1] (setting [3]), 70.9 nM in assay [1] (setting [4]), > 10000 nM in assay [2] (setting [5]) and 6550 nM in assay [2] (setting [6]).
Consider `CNC(=O)c1ccc2c(ccn2-c2ccc(CNC(=O)c3ncc(Cc4ccccc4)o3)cc2)c1` [XHJ-2-88], for which the EC50 came to 380 nM in assay [1] (setting [3]), 70.1 nM in assay [1] (setting [4]), 3980 nM in assay [2] (setting [5]) and 831 nM in assay [2] (setting [6]).
As for `Cn1nc2c(c1Cc1ccccc1)C(=O)N(Cc1ccc(-n3cnc4c(N)ncnc43)cc1)CC2` [ZSQ-22-96], the EC50 worked out at 2.26 nM in assay [1] (setting [3]), 0.203 nM in assay [1] (setting [4]), 38.6 nM in assay [2] (setting [5]) and 8.38 nM in assay [2] (setting [6]).
For `CNC(=O)c1ccc2c(c1)ncn2-c1ccc(NC(=O)c2nocc2Cc2ccccc2)cc1` [QY-6-15] the same measures were > 10000 nM, 1370 nM, > 10000 nM and > 10000 nM.
On the same counts, the results for `CNC(=O)c1ccc2c(c1)ncn2-c1ccc(CNC(=O)c2nnc(Cc3ccccc3)o2)cc1` [QY-7-32, 5-Benzyl-N-(4-(5-(methylcarbamoyl)-1H-benzo[d]imidazol-1-yl)benzyl)-1,3,4-oxadiazol-2-carboxamide] are 1520 nM, 185 nM, > 10000 nM and > 10000 nM.
Take `CNC(=O)c1ccc2c(c1)ncn2-c1ccc(CC(=O)NC(C)(C)C(=O)N2CCCC2c2ccc(C)cc2)cc1` (centres unmarked) [QY-8-42]: the EC50 in assay [1] (setting [3]), in assay [1] (setting [4]), in assay [2] (setting [5]) and in assay [2] (setting [6]) was > 10000 nM each time.
As for `Cn1nc(C(=O)NCc2ccc(-n3ccc4c(N)ncnc43)cc2)cc1Cc1ccccc1` [QY-10-21, N-(4-(4-amino-7H-pyrrolo[2,3-d]pyrimidin-7-yl)benzyl)-5-benzyl-1-methyl-1H-pyrazol-3-carboxamide], the EC50 in assay [1] (setting [3]) was 299 nM; in assay [1] (setting [4]), 49 nM; in assay [2] (setting [5]) it was > 10000 nM; in assay [2] (setting [6]), > 10000 nM.
Regarding `Nc1ncnc2c1ncn2-c1ccc(CNC(=O)c2n[nH]c3ncc(C(F)(F)C(F)(F)F)cc23)cc1` [QY-9-77, N-(4-(6-amino-9H-purin-9-yl)benzyl)-5-(perfluoroethyl)-1H-pyrazolo[3,4-b]pyridine-3-carboxamide], the EC50 was determined as 171 nM in assay [1] (setting [3]), 9.04 nM in assay [1] (setting [4]), 5000 nM in assay [2] (setting [5]) and 344 nM in assay [2] (setting [6]).
For `CNC(=O)c1ccc2c(c1)ncn2-c1ccc(CNC(=O)c2ccc(F)n2Cc2ccccc2)cc1` [QY-12-47] the same measures were 17.4 nM, 1.74 nM, 34.4 nM and 6 nM.
On the same counts, the results for `CNC(=O)c1ccc2c(c1)ncn2-c1ccc(CC(=O)N2CCCC2c2ccccc2)cc1` (centres unmarked) [QY-7-65, N-methyl-1-(4-(2-oxo-2-(2-phenylpyrrolidin-1-yl)ethyl)phenyl)-1H-benzo[d]imidazol-5-carboxamide] are > 10000 nM, > 10000 nM, > 10000 nM and > 10000 nM.
Turning to `Cn1ncc(C(=O)NCc2ccc(-c3ncnc4[nH]ccc34)cc2)c1Cc1ccccc1` [QY-11-80], the EC50 is 482 nM in assay [1] (setting [3]), 35 nM in assay [1] (setting [4]), 3460 nM in assay [2] (setting [5]) and 1970 nM in assay [2] (setting [6]).
Turning to `Cn1nc(C(=O)NCc2ccc(-n3ccc4c(N)nccc43)cc2)cc1Cc1ccccc1` [ZSQ-16-3], the EC50 was > 10000 nM in assay [1] (setting [3]), 361 nM in assay [1] (setting [4]), > 10000 nM in assay [2] (setting [5]) and 2320 nM in assay [2] (setting [6]).
In the case of `CN(C)CCNC(=O)c1ccc2c(c1)ncn2-c1ccc(CNC(=O)c2cnn(C)c2Cc2ccccc2)cc1` [QY-11-74B], the EC50 in assay [1] (setting [3]) turned out to be 3.73 nM; in assay [1] (setting [4]) it was 0.293 nM; in assay [2] (setting [5]) it was 0.687 nM; in assay [2] (setting [6]), 0.386 nM.
Regarding `COc1ccc2ncn(-c3ccc(CNC(=O)c4nnn(C)c4Cc4ccccc4)cc3)c2n1` [ET-0935], the EC50 in assay [1] (setting [3]) turned out to be 0.244 nM; in assay [1] (setting [4]), 0.0235 nM; in assay [2] (setting [5]), 0.001 nM; in assay [2] (setting [6]), 0.001 nM. In assay [1], the “activity of inhibition of programmed necrosis compared with GSK2982772” value is on record as “stronger activity”.
Consider `CNC(=O)c1ccc2c(c1)ncn2-c1ccc(CNC(=O)c2cn(Cc3ccccc3)nn2)cc1` [ZSQ-13-35], for which the EC50 is 1590 nM in assay [1] (setting [3]), 233 nM in assay [1] (setting [4]), > 10000 nM in assay [2] (setting [5]) and > 10000 nM in assay [2] (setting [6]).
Consider `CC(NC(=O)c1cnn(C)c1Cc1ccccc1)c1ccc(-n2cnc3c(N)ncnc32)cc1` (centres unmarked) [QY-12-31], for which the EC50 in assay [1] (setting [3]) amounted to 0.254 nM; in assay [1] (setting [4]), 0.0967 nM; in assay [2] (setting [5]) it was 0.569 nM; in assay [2] (setting [6]), 0.356 nM.
